PMC10840383, “Clinical features, functional consequences, and rescue pharmacology of missense GRID1 and GRID2 human variants” (Human Molecular Genetics, 2023)
Where a chain is given by its changes, count along the chain named.

How the values were obtained:
Format in all cases: cell-based
GluD2-T649A = molecular target: T1, GluD2-T649A (Rattus norvegicus, UniProt Q63226, T649A); test: TEVC of constitutive current, Xenopus oocytes expressing GluD2-T649A; conditions: for IC50: inhibitors of constitutively active GluD2 current, read-out: T649A IC50
T1 construct: expressed in transfected cells; host or cells: Xenopus laevis oocytes injected with cRNA
T1 sequence (Q63226 24-1007 T649A): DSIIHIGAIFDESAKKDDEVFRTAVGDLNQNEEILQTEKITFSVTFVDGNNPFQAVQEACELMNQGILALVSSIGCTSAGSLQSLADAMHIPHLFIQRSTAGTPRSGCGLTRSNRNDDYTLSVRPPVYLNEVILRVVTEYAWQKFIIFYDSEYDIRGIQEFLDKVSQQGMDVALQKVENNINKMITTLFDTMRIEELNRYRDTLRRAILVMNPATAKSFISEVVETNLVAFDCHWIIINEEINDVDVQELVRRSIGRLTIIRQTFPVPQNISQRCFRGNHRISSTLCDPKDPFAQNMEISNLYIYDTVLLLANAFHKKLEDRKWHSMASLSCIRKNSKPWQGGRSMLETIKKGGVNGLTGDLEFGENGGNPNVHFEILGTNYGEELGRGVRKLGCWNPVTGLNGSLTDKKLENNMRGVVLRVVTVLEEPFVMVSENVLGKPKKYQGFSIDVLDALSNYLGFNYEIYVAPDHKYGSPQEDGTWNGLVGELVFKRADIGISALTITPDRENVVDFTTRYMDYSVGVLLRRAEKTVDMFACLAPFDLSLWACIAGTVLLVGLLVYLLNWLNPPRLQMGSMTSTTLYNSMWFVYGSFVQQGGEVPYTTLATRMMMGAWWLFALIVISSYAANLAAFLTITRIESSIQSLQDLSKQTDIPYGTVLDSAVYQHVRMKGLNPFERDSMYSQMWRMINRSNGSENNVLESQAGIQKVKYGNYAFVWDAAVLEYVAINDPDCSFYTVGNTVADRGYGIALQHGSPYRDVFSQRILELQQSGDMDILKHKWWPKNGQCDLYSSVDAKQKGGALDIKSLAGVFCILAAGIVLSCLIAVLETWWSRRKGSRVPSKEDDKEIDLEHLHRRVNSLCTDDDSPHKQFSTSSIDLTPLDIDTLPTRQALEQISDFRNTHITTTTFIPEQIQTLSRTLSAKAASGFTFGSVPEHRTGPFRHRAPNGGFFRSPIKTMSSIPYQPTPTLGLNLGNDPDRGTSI

GluD2-A654T = molecular target: T2, GluD2-A654T (Rattus norvegicus, UniProt Q63226, A654T); test: TEVC of constitutive current, Xenopus oocytes expressing GluD2-A654T (lurcher); conditions: for IC50: inhibitors of constitutively active GluD2 current, read-out: A654T IC50
T2 construct: expressed in transfected cells; host or cells: Xenopus laevis oocytes injected with cRNA
T2 sequence (Q63226 24-1007 A654T): T1 sequence (Q63226 24-1007 T649A) with A626T, A631T

[1] = system: constitutively active GluD1 and GluD2 receptor variants; test: Inhibition of constitutive currents of GluD variants by channel blockers, Xenopus oocytes
Method: Xenopus laevis oocytes were prepared from ovaries purchased from Xenopus 1 (Dexter, MI) as previously described, [68] and incubated at 16°C in culture Barth’s solution (in mM) 88 NaCl, 2.4 NaHCO3, 1 KCl, 0.33 Ca(NO3)2, 0.41 CaCl2, 0.82 MgSO4, 10 HEPES, pH 7.4 with NaOH, supplemented with 1 U/ml penicillin and 1 μg/ml streptomycin. Oocytes were injected with approximately 5–40 ng RNA per oocyte and then incubated at 16–19°C for 1–3 days in culture Barth’s solution. The levels of GluD2-A654D and GluD2-A654T cRNA were reduced to 1.5 ng and 2.5 ng, respectively, due to oocyte toxicity. Two-electrode voltage clamp (TEVC) recordings were performed as previously described. Unless otherwise specified, extracellular solution contained (in mM) 90 NaCl, 3 KCl, 0.5 BaCl2, 0.01 EDTA, 10 HEPES, and was brought to pH 7.4 with NaOH. The oocytes were placed in a dual track recording chamber and gravity perfused with solution exchange controlled via a computer-driven 8-valve positioner (Digital MVP Valve). […] Recording electrodes were filled with 0.3 M KCl, and currents were recorded with membrane voltage held at −40 mV. To establish constitutive activity of recombinant receptors when compared to wild type receptors, we used the oocyte recording solution described above, but with 90 mM N-methyl-D-glucamine (NMDG) chloride replacing 90 mM NaCl. […] In addition to establishing constitutive activity, 90 mM NMDG was used in recording protocols with drug treatment to obtain the percent maximum theoretical inhibition of a compound, or to determine the relative degree of drug potentiation. For Ca^2+ concentration-response curves, choline chloride was used to maintain equimolar concentrations of Cl^− ions in the extracellular solution across the changing concentrations of calcium chloride. All compounds used in this study for concentration-response oocyte recordings were dissolved in deionized water as 50–100 mM stock solutions. In some rescue pharmacology experiments, we substituted 1 mM CaCl2 for 0.5 mM BaCl2 to evaluate Ca^2+-dependent control of receptor responses.

## C[C@@H](N)C(=O)O [D-Alanine, D-alanine]
GluD2-T649A
  Effect on constitutive current, in words: inhibited
  Fold-shift (IC50 A654T/IC50 T649A): 1.2
  IC50: 1300 µM
GluD2-A654T
  Effect on constitutive current, in words: inhibited
  IC50: 1600 µM

## NCC(=O)O [Glycine]
GluD2-T649A
  Effect on constitutive current, in words: inhibited
GluD2-A654T
  Effect on constitutive current, in words: inhibited

## N[C@@H](CC(=O)O)C(=O)O [L-Aspartic Acid, L-aspartic acid]
GluD2-T649A
  Effect on constitutive current, in words: inhibited
  Fold-shift (IC50 A654T/IC50 T649A): 19
  IC50: 270 µM
GluD2-A654T
  Effect on constitutive current, in words: inhibited
  IC50: 5000 µM

## CNC1(c2ccccc2Cl)CCCCC1=O (stereo not shown) [ketamine]
[1]
  Inhibition of constitutive currents, in words: memantine inhibits GluD receptor constitutively active currents more effectively than ketamine
